In ChEMBL document CHEMBL1121707, “Synthesis of 2'-deoxy-L-fucopyranosylcarminomycinone and -epsilon-pyrromycinone as well as 2'-deoxy-D-erythro-pentopyranosyldaunomycinone, -carminomycinone, and -epsilon-pyrromycinone” (1981):

Columns and labels:
L1210 [1] = assay: Average weight change after administration at 3.2 mg/kg intraperitoneally in mice on day 1; assay type: functional, Mus musculus; conditions: route intraperitoneal
L1210 [2] = assay: Tested for survivors on day 5 after administration at 6.4 mg/kg intraperitoneally in mice on day 1; assay type: functional, Mus musculus; conditions: route intraperitoneal
L1210 [3] = assay: Tested for survivors on day 5 after administration at 3.2 mg/kg intraperitoneally in mice on day 1; assay type: functional, Mus musculus; conditions: route intraperitoneal
L1210 [4] = assay: Median survival time of treated to that of control after administration at 0.8 mg/kg intraperitoneally in BDF1 mice on day 1; assay type: functional, Mus musculus; conditions: route intraperitoneal
L1210 [5] = assay: Tested for survivors on day 5 after administration at 0.8 mg/kg intraperitoneally in mice on day 1; assay type: functional, Mus musculus; conditions: route intraperitoneal
L1210 [6] = assay: Tested for survivors on day 5 after administration at 12.8 mg/kg intraperitoneally in mice on day 1; assay type: functional, Mus musculus; conditions: route intraperitoneal
L1210 [7] = assay: Median survival time of treated to that of control after administration at 12.8 mg/kg intraperitoneally in BDF1 mice on day 1; assay type: functional, Mus musculus; conditions: route intraperitoneal
Bacillus subtilis [8] = assay: Tested for antibacterial effect against Bacillus subtilis-8 at dose 12.5 ug/mL; assay type: functional
Bacillus subtilis [9] = assay: Tested for antibacterial effect against Bacillus subtilis-8 at dose 25 ug/mL; assay type: functional
L1210 [10] = assay: Average weight change after administration at 12.8 mg/kg intraperitoneally in mice on day 1; assay type: functional, Mus musculus; conditions: route intraperitoneal
Bacillus subtilis [11] = assay: Tested for antibacterial effect against Bacillus subtilis-8 at dose 50 ug/mL; assay type: functional
Bacillus subtilis [12] = assay: Tested for antibacterial effect against Bacillus subtilis-8 at dose 6.25 ug/mL; assay type: functional
L1210 [13] = assay: Median survival time of treated to that of control after administration at 6.4 mg/kg intraperitoneally in BDF1 mice on day 1; assay type: functional, Mus musculus; conditions: route intraperitoneal
L1210 [14] = assay: Median survival time of treated to that of control after administration at 3.2 mg/kg intraperitoneally in BDF1 mice on day 1; assay type: functional, Mus musculus; conditions: route intraperitoneal
L1210 [15] = assay: Average weight change after administration at 0.4 mg/kg intraperitoneally in mice on day 1; assay type: functional, Mus musculus; conditions: route intraperitoneal
L1210 [16] = assay: Average weight change after administration at 0.8 mg/kg intraperitoneally in mice on day 1; assay type: functional, Mus musculus; conditions: route intraperitoneal
L1210 [17] = assay: Average weight change after administration at 1.6 mg/kg intraperitoneally in mice on day 1; assay type: functional, Mus musculus; conditions: route intraperitoneal
L1210 [18] = assay: Tested for survivors on day 5 after administration at 1.6 mg/kg intraperitoneally in mice on day 1; assay type: functional, Mus musculus; conditions: route intraperitoneal
L1210 [19] = assay: Median survival time of treated to that of control after administration at 1.6 mg/kg intraperitoneally in BDF1 mice on day 1; assay type: functional, Mus musculus; conditions: route intraperitoneal
L1210 [20] = assay: Median survival time of treated to that of control after administration at 0.4 mg/kg intraperitoneally in BDF1 mice on day 1; assay type: functional, Mus musculus; conditions: route intraperitoneal
L1210 [21] = assay: Tested for survivors on day 5 after administration at 0.4 mg/kg intraperitoneally in mice on day 1; assay type: functional, Mus musculus; conditions: route intraperitoneal
P388 [22] = assay: Average weight change after administration on every 4th day at 25 mg/kg intraperitoneally in mice; assay type: functional, Mus musculus; conditions: route intraperitoneal
L1210 [23] = assay: Tested for survivors on day 5 after administration at 6.4 mg/kg intraperitoneally in mice on day 1 in experiment 1; assay type: functional, Mus musculus; conditions: route intraperitoneal
P388 [24] = assay: Average weight change after administration on every 4th day at 6.25 mg/kg intraperitoneally in mice; assay type: functional, Mus musculus; conditions: route intraperitoneal
P388 [25] = assay: Tested for survivors on day 5 after administration on every 4th day at 25 mg/kg intraperitoneally in mice; assay type: functional, Mus musculus; conditions: route intraperitoneal
P388 [26] = assay: Tested for survivors on day 5 after administration on every 4th day at 3.13 mg/kg intraperitoneally in mice; assay type: functional, Mus musculus; conditions: route intraperitoneal
P388 [27] = assay: Median survival time of treated to that of control after administration on every 4th day at 25 mg/kg intraperitoneally in BDF1 mice; assay type: functional, Mus musculus; conditions: route intraperitoneal
L1210 [28] = assay: Average weight change after administration at 3.2 mg/kg intraperitoneally in mice on day 1 in experiment 1; assay type: functional, Mus musculus; conditions: route intraperitoneal
L1210 [29] = assay: Tested for survivors on day 5 after administration at 0.8 mg/kg intraperitoneally in mice on day 1 in experiment 1; assay type: functional, Mus musculus; conditions: route intraperitoneal
L1210 [30] = assay: Tested for survivors on day 5 after administration at 12.8 mg/kg intraperitoneally in mice on day 1 in experiment 1; assay type: functional, Mus musculus; conditions: route intraperitoneal
P388 [31] = assay: Median survival time of treated to that of control after administration at 3.13 mg/kg intraperitoneally in BDF1 mice; assay type: functional, Mus musculus; conditions: route intraperitoneal
L1210 [32] = assay: Median survival time of treated to that of control after administration at 6.4 mg/kg intraperitoneally in BDF1 mice on day 1 in experiment 1; assay type: functional, Mus musculus; conditions: route intraperitoneal
L1210 [33] = assay: Average weight change after administration at 0.8 mg/kg intraperitoneally in mice on day 1 in experiment 1; assay type: functional, Mus musculus; conditions: route intraperitoneal
L1210 [34] = assay: Median survival time of treated to that of control after administration at 12.8 mg/kg intraperitoneally in BDF1 mice on day 1 in experiment 1; assay type: functional, Mus musculus; conditions: route intraperitoneal
L1210 [35] = assay: Median survival time of treated to that of control after administration at 0.8 mg/kg intraperitoneally in BDF1 mice on day 1 in experiment 1; assay type: functional, Mus musculus; conditions: route intraperitoneal
P388 [36] = assay: Median survival time of treated to that of control after administration on every 4th day at 6.25 mg/kg intraperitoneally in BDF1 mice; assay type: functional, Mus musculus; conditions: route intraperitoneal
L1210 [37] = assay: Average weight change after administration at 0.4 mg/kg intraperitoneally in mice on day 1 in experiment 1; assay type: functional, Mus musculus; conditions: route intraperitoneal
L1210 [38] = assay: Tested for survivors on day 5 after administration at 3.2 mg/kg intraperitoneally in mice on day 1 in experiment 1; assay type: functional, Mus musculus; conditions: route intraperitoneal
L1210 [39] = assay: Median survival time of treated to that of control after administration at 0.4 mg/kg intraperitoneally in BDF1 mice on day 1 in experiment 1; assay type: functional, Mus musculus; conditions: route intraperitoneal
P388 [40] = assay: Tested for survivors on day 5 after administration on every 4th day at 6.25 mg/kg intraperitoneally in mice; assay type: functional, Mus musculus; conditions: route intraperitoneal
L1210 [41] = assay: Median survival time of treated to that of control after administration at 3.2 mg/kg intraperitoneally in BDF1 mice on day 1 in experiment 1; assay type: functional, Mus musculus; conditions: route intraperitoneal
P388 [42] = assay: Average weight change after administration at 3.13 mg/kg intraperitoneally in mice; assay type: functional, Mus musculus; conditions: route intraperitoneal
P388 [43] = assay: Median survival time of treated to that of control after administration on every 4th day at 12.5 mg/kg intraperitoneally in BDF1 mice; assay type: functional, Mus musculus; conditions: route intraperitoneal
L1210 [44] = assay: Tested for survivors on day 5 after administration at 1.6 mg/kg intraperitoneally in mice on day 1 in experiment 1; assay type: functional, Mus musculus; conditions: route intraperitoneal
L1210 [45] = assay: Tested for survivors on day 5 after administration at 0.4 mg/kg intraperitoneally in mice on day 1 in experiment 1; assay type: functional, Mus musculus; conditions: route intraperitoneal
P388 [46] = assay: Average weight change after administration on every 4th day at 12.5 mg/kg intraperitoneally in mice; assay type: functional, Mus musculus; conditions: route intraperitoneal
L1210 [47] = assay: Average weight change after administration at 1.6 mg/kg intraperitoneally in mice on day 1 in experiment 1; assay type: functional, Mus musculus; conditions: route intraperitoneal
P388 [48] = assay: Tested for survivors on day 5 after administration on every 4th day at 50 mg/kg intraperitoneally in mice; assay type: functional, Mus musculus; conditions: route intraperitoneal
P388 [49] = assay: Tested for survivors on day 5 after administration at 12.5 mg/kg intraperitoneally in mice on day 1 in experiment 2; assay type: functional, Mus musculus; conditions: route intraperitoneal
L1210 [50] = assay: Median survival time of treated to that of control after administration at 1.6 mg/kg intraperitoneally in BDF1 mice on day 1 in experiment 1; assay type: functional, Mus musculus; conditions: route intraperitoneal
P388 [51] = assay: Average weight change after administration on every 4th day at 50 mg/kg intraperitoneally in mice; assay type: functional, Mus musculus; conditions: route intraperitoneal
P388 [52] = assay: Median survival time of treated to that of control after administration on every 4th day at 50 mg/kg intraperitoneally in BDF1 mice; assay type: functional, Mus musculus; conditions: route intraperitoneal
L1210 [53] = assay: Average weight change after administration at 6.4 mg/kg intraperitoneally in mice on day 1 in experiment 1; assay type: functional, Mus musculus; conditions: route intraperitoneal
L1210 [54] = assay: Average weight change after administration at 12.8 mg/kg intraperitoneally in mice on day 1 in experiment 1; assay type: functional, Mus musculus; conditions: route intraperitoneal

SMILES: C/C(=N\NC(=O)c1ccccc1)[C@]1(O)Cc2c(O)c3c(c(O)c2[C@@H](O[C@H]2C[C@H](O)[C@H](O)[C@H](C)O2)C1)C(=O)c1c(O)cccc1C3=O
- Average weight change (L1210 [1]): 1.9
- Survivors (L1210 [2]): 6
- Survivors (L1210 [3]): 6
- T/C (L1210 [4]): 93%
- Survivors (L1210 [5]): 6
- Survivors (L1210 [6]): 6
- T/C (L1210 [7]): 114%
- Inhibition zone (Bacillus subtilis [8]): 12.8 mm
- Inhibition zone (Bacillus subtilis [9]): 13.8 mm
- Average weight change (L1210 [10]): -0.3
- Inhibition zone (Bacillus subtilis [11]): 15 mm
- Inhibition zone (Bacillus subtilis [12]): 10.3 mm
- T/C (L1210 [13]): 107%
- T/C (L1210 [14]): 93%
- Average weight change (L1210 [15]): 2.3
- Average weight change (L1210 [16]): 1.5
- Average weight change (L1210 [17]): 2
- Survivors (L1210 [18]): 6
- T/C (L1210 [19]): 100%
- T/C (L1210 [20]): 100%
- Survivors (L1210 [21]): 6

SMILES: COc1cccc2c1C(=O)c1c(O)c3c(c(O)c1C2=O)C[C@@](O)(C(C)=O)C[C@@H]3O[C@H]1C[C@H](O)[C@H](O)CO1
- Average weight change (P388 [22]): -0.5
- Survivors (L1210 [23]): 6
- Average weight change (P388 [24]): -1.2
- Survivors (P388 [25]): 6
- Survivors (P388 [26]): 6
- T/C (P388 [27]): 110%
- Average weight change (L1210 [28]): 0.2
- Survivors (L1210 [29]): 6
- Survivors (L1210 [30]): 6
- Inhibition zone (Bacillus subtilis [8]): 12.5 mm
- Inhibition zone (Bacillus subtilis [9]): 15.8 mm
- T/C (P388 [31]): 100%
- T/C (L1210 [32]): 93%
- Inhibition zone (Bacillus subtilis [11]): 18.8 mm
- Average weight change (L1210 [33]): 1.8
- Inhibition zone (Bacillus subtilis [12]): 10 mm
- T/C (L1210 [34]): 107%
- T/C (L1210 [35]): 100%
- T/C (P388 [36]): 100%
- Average weight change (L1210 [37]): 1.5
- Survivors (L1210 [38]): 6
- T/C (L1210 [39]): 100%
- Survivors (P388 [40]): 6
- T/C (L1210 [41]): 100%
- Average weight change (P388 [42]): -2
- T/C (P388 [43]): 112%
- Survivors (L1210 [44]): 6
- Survivors (L1210 [45]): 6
- Average weight change (P388 [46]): -1.3
- Average weight change (L1210 [47]): 2.6
- Survivors (P388 [48]): 6
- Survivors (P388 [49]): 6
- T/C (L1210 [50]): 86%
- Average weight change (P388 [51]): 0.2
- T/C (P388 [52]): 110%
- Average weight change (L1210 [53]): 2.4
- Average weight change (L1210 [54]): 2.3
